Test results taken from article PMC12113707, “Microwave Assisted Synthesis of Antioxidant Dihydro-Pyrazole Hybrids as Possible Lipoxygenase Inhibitors” (Molecules, 2025).

Tests used:
[1] = Experimental lipophilicity RM by reverse phase thin layer chromatography (RP-TLC); assay type: physicochemical; settings: methanol-water mobile phase
Procedure: Lipophilicity is a main physicochemical parameter for bioactive molecules, linking solubility, ligand-target binding interactions, membrane permeability absorption, distribution, bioavailability, metabolism, elimination and toxicological effects (ADMET), playing an important role in biological activity. The experimental values of lipophilicity RM were determined by reverse phase thin layer chromatography. For the experimental determination of lipophilicity the hydrophilic-lipid phase system is a mixture of methanol- water (90/10%). The theoretical lipophilicity values are determined by the Bioloom program (http://biobyte.com/bb/prod/bioloom.html, accessed on 8 April 2024) (Table 1). According to the calculated clog P values, the most lipophilic compounds are 3c, 3d and 3f while the less lipophilic ones are compounds 5a and 5b.
Melting points were determined on a MEL-Temp II (Lab. Devices, Holliston, MA, USA). In vitro tests were carried out using a UV-Vis spectra and recorded on a Perkin-Elmer 554 double-beam spectrophotometer (Perkin-Elmer Corporation Ltd., Lane Beaconsfield, Bucks, UK). Infrared spectra (KBr pellets) were recorded with Perkin-Elmer 597 spectrophotometer (Perkin-Elmer Corporation Ltd., Lane Beaconsfield, Bucks, UK). The ^1H […] Magnetic Resonance (^1H-NMR) spectra were acquired on an Agilent 500/54 (DD2) at 500 MHz in CDCl3 using tetramethylsilane as an internal standard. Agilent 500/54 (DD2) ^13C NMR spectra were acquired at 125 MHz in CDCl3 solutions with tetramethylsilane serving as an internal reference. Coupling constants J are expressed in Hz, and chemical shifts are reported in ppm. Thermo Fisher Scientific Inc., Waltham, MA, USA, used MeOH as the solvent to calculate mass spectra using an LC-PDA-MS Thermo Finnigan system (LC Pump Plus, Autosampler, Surveyor PDA Plus Detector) interfaced with an ESI MSQ Plus (Thermo Finnigan). Thin-layer chromatography using 5554 F254 Silica gel/TLC cards (Merck and Fluka Chemie GmbH Buchs, Steinheim, Switzerland) was used to monitor the reaction progress. Silica gel 60 F254 plates with a diameter of 2 mm were utilized for preparative thin layer chromatography (prep TLC) by Merck KgaA (ICH078057). Merck (20 × 20 cm) plates were used for the experimental assessment of the lipophilicity using reverse phase thin-layer chromatography (RP-TLC) TLC-Silica gel 60 F254 DC Kieselgel.
In this experiment, TLC silica gel 60 F254 1.05715.0001 commercial glass plates from Merck were used. The plates were first immersed in a 5% v/v solution of liquid paraffin in petroleum ether and left for 90 s to become completely impregnated with the stable lipophilic phase. They were then activated by standing for 30 min in an oven at 40 °C and kept there until the time of use. A 70% v/v MeOH/H2O mixture was used as the mobile phase. The mobile phase was saturated with a few drops of liquid paraffin before being used. The spots of the compounds were placed on the plate at a distance of 2 cm from the edges of the plate and also from each other. The development of the spots on the plates was carried out in closed chromatography chambers where the atmosphere is saturated with the mobile phase at room temperature. At the end of development, the solvent-formed front was marked and the plates are dried at 80 °C for about 20–30 min. The appearance of the spots was made under an ultraviolet light lamp. The Rf values were the average of 5–6 measurements for each compound and assuming that the compounds will have been rotated to different positions on the plates. The RM values were calculated from the corresponding Rf values according to the equation [67].RM = log [(1/Rf) − 1](1)

[2] = Interaction with the stable free radical DPPH (reducing activity); settings: 517 nm
Procedure: In general, the compounds present moderate to good antioxidant activity. It seems that the dibenzylacetones present satisfactory antioxidant activity compared to the hybrids at 60 min (1b, 1d and 1f).
The tested compounds (0.1 mM final concentration) dissolved in DMSO were incubated with a solution of DPPH in absolute ethanol in absence of light. The absorbance at 20 and 60 min at 517 nm was recorded at room temperature. NDGA was used as the reference compound.

[3] = Inhibition of AAPH-induced linoleic acid peroxidation; settings: 37 °C, 234 nm
Procedure: The ability of the compounds to inhibit AAPH-induced peroxidation of linoleic acid is another assay to investigate the antioxidant properties of the compounds. Azo compounds such as 2,2′-azobis dihydrochloride (2-amidinopropane) (AAPH) are capable of generating free radicals through spontaneous decomposition at 37 °C. The R- radicals react immediately with air-oxygen to produce peroxy radicals. AAPH was therefore used as the radical initiator and sodium linoleate as substrate subjected to peroxidation. Measurements were carried out at 234 nm using a UV/V is spectrophotometer. Dichalcone 1i substituted with two phenyl groups presents the lowest lipophilicity. […] Therefore, hydrophilic substituents offer an increase in activity.
The interaction of free radicals with cell membrane lipids induces free radical chain reactions, a process called lipid peroxidation. 930 μL of a phosphate buffer solution (0.05 M, pH = 7.4), 10 μL of the sodium linolate solution (16 mM in a buffer solution of Tris-HCl pH = 9) and 10 μL of the tested compounds (stock solutions 100 μΜ) were mixed and the oxidative procedure started after the addition of 50 μL AAPH at 37 °C under air conditions. The conjugated diene’s absorbance was measured at 234 nm at a thermostable spectrophotometer (37 °C) according to previous publication.

[4] = target: T1, soybean lipoxygenase (SLOX-1) (Glycine max, UniProt P08170); test: Inhibition of soybean lipoxygenase in vitro; assay type: biochemical; settings: pH 9, sodium linoleate substrate; for inhibition at 100 µM: read-out: LOX% Inhibition, 100 μM (±SD)
T1 construct: 200 μL of plant-derived lipoxygenase solution (1:9 × 10^−4 w/v, in saline); purchased Sigma Chemical, Co; host or cells: soybean (plant-derived)
T1 sequence (P08170 1-839): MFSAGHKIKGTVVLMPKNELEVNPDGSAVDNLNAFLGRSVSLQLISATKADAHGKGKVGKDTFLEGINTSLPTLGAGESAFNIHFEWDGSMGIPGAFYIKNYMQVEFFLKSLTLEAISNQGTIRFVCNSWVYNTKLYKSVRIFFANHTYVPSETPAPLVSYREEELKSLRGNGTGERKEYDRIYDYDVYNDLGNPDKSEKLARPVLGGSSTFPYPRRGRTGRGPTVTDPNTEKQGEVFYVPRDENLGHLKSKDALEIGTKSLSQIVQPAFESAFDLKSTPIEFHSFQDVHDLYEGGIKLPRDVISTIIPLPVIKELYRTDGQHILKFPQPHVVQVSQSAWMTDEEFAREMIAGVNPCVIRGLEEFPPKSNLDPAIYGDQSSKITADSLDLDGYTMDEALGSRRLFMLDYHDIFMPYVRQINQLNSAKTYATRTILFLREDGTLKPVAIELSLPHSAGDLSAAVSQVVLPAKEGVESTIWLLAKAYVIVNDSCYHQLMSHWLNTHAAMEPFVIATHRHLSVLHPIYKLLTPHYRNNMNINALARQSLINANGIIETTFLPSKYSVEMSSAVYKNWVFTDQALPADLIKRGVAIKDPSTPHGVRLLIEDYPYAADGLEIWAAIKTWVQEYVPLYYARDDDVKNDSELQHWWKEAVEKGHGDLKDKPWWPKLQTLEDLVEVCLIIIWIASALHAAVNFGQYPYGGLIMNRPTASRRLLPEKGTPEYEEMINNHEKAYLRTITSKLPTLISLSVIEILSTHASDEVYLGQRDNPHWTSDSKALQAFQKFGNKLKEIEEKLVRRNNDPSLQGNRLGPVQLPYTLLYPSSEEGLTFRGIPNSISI
Procedure: Soybean lipoxygenase SLOX-1 at pH 9 is used in vitro. During this assay linoleic acid sodium salt is converted to the corresponding 13-hydroperoxide. The reaction is recorded photometrically at 234 nm using the UV-based enzyme assay. […] It is known that soybean LOX inhibitory activity induced by NSAIDs is qualitatively quite similar to the inhibition observed on the rat mast cells LOX and this assay may be used as a qualitative or semi-quantitative screen for such activity.
To a quartz cell, add 790 μL of Tris-HCl pH = 9.0 buffer, 200 μL of plant-derived lipoxygenase solution (1:9 × 10^−4 w/v, in saline), 10 μL of the test compound solution and 100 μL of sodium linoleate solution (3 mM concentration). The absorbance was measured at 234 nm, where the change in absorbance due to the conversion of linoleic acid to […] was recorded. A solution of 790 μL of Tris-HCl pH = 9.0 buffer, 200 μL of a plant-derived lipoxygenase solution (1:9 × 10^−4 w/v, in saline), 10 μL of DMSO and 100 μL of sodium linoleate solution (3 mM concentration) was used as a control.

Q: What does the source list for CN(C)c1ccc(/C=C/C2=NN(c3ccc(Br)cc3)C(c3ccc(N(C)C)cc3)C2)cc1 (stereo not drawn) [Compound 3e]?
A: RM ± SD [1]: 1.25 ± 0.086; RA%, 100 μM, 20 min (±SD) [2]: 30 ± 0.9%; RA%, 100 μM, 60 min (±SD) [2]: 53 ± 0.9%; AAPH% Inhibition, 100 μM (±SD) [3]: 80 ± 2.9%; IC50 ([4]; read-out: LOX IC50 (μM) (±SD)): 20 µM

Q: Which “RM ± SD” value [1] does the source give for CN(C)c1ccc(/C=C/C2=NN(C(N)=O)C(c3ccc(N(C)C)cc3)C2)cc1 (stereo not drawn) [Compound 5e, (E)-5-(4-dimethylaminophenyl)-3-(4-dimethylaminostyryl)-4,5-dihydro-1H-pyrazole-1-carboxamide] here?
A: 0.28 ± 0.019

Q: And the “RA%, 100 μM, 20 min (±SD)” value [2]?
A: 20 ± 0.1%

Q: What about the “AAPH% Inhibition, 100 μM (±SD)” value [3] of the same compound?
A: 61 ± 0.9%

Q: And the inhibition at 100 µM [4]?
A: 19 ± 0.4%

Q: Which “RM ± SD” value [1] does the source give for N#Cc1ccc(N2N=C(/C=C/c3ccccc3)CC2c2ccccc2)cc1 (stereo not drawn) [Compound 4a, (E)-4-(5-phenyl-3-styryl-4,5-dihydro-1H-pyrazo-1-yl)-benzonitrile] here?
A: −0.31 ± 0.023

Q: And the “AAPH% Inhibition, 100 μM (±SD)” value [3]?
A: 98 ± 0.4%

Q: And the inhibition at 100 µM [4]?
A: 39 ± 0.4%

Q: With CC(Cc1ccc(O)c(O)c1)C(C)Cc1ccc(O)c(O)c1 (stereo not drawn) [NDGA, Nordihydroguaretic acid, reference compound] as the compound, how does the “RA%, 100 μM, 20 min (±SD)” value [2] read?
A: 87%

Q: What about the “RA%, 100 μM, 60 min (±SD)” value [2] of the same compound?
A: 93%

Q: For NC(=O)N1N=C(/C=C/c2ccc(Br)cc2)CC1c1ccc(Br)cc1 (stereo not drawn) [Compound 5c, (E)-5-(4-bromophenyl)-3-(4-bromostyryl)-4,5-dihydro-1H-pyrazole-1-carboxamide], which “RM ± SD” value [1] is on record?
A: 0.60 ± 0.055

Q: What about the “AAPH% Inhibition, 100 μM (±SD)” value [3] of the same compound?
A: 85 ± 0.6%

Q: And the inhibition at 100 µM [4]?
A: 37 ± 0.6%

Q: Which “RM ± SD” value [1] does the source give for CC(=O)N1N=C(/C=C/c2ccc(Br)cc2)CC1c1ccc(Br)cc1 (stereo not drawn) [Compound 6c, (E)-5-(4-bromophenyl)-3-(4-bromostyrene)-4,5-dihydro-1-H-pyrazol-1-ethan-1-one] here?
A: 0.78 ± 0.051

Q: And the “AAPH% Inhibition, 100 μM (±SD)” value [3]?
A: 71 ± 0.4%

Q: What about the inhibition at 100 µM [4] of the same compound?
A: 1 ± 0.07%

Q: For Cc1c(C)c2c(c(C)c1O)CCC(C)(C(=O)O)O2 (stereo not drawn) [Trolox, 6-Hydroxy-2,5,7,8-tetramethyl-chroman2-carboxylic acid, reference compound], which “AAPH% Inhibition, 100 μM (±SD)” value [3] is on record?
A: 92%

Q: Which “RM ± SD” value [1] does the source give for CC(=O)N1N=C(/C=C/c2ccc(F)cc2)CC1c1ccc(F)cc1 (stereo not drawn) [Compound 6b, (E)-5-(4-fluorophenyl)-3-(4-fluorostyryl)-4,5-dihydro-1-H-pyrazol-1-ethan-1-one] here?
A: 0.24 ± 0.021

Q: And the “AAPH% Inhibition, 100 μM (±SD)” value [3]?
A: 46 ± 0.6%

Q: What about the inhibition at 100 µM [4] of the same compound?
A: 26 ± 0.3%

Q: For NC(=O)N1N=C(/C=C/c2ccccc2)CC1c1ccccc1 (stereo not drawn) [Compound 5a, (E)-5-phenyl-3-styryl-4,5-dihydro-1H-pyrazole-1-carboxamide], which “RM ± SD” value [1] is on record?
A: 0.06 ± 0.005

Q: And the “AAPH% Inhibition, 100 μM (±SD)” value [3]?
A: 29 ± 2.2%

Q: What about the inhibition at 100 µM [4] of the same compound?
A: 4 ± 0.3%

Q: Which results are given for Brc1ccc(/C=C/C2=NN(c3ccccc3)C(c3ccc(Br)cc3)C2)cc1 (stereo not drawn) [Compound 2c]?
A: RM ± SD [1]: 2.1 ± 0.17; RA%, 100 μM, 20 min (±SD) [2]: 21 ± 0.6%; AAPH% Inhibition, 100 μM (±SD) [3]: 68 ± 0.6%

Q: For N#Cc1ccc(N2N=C(/C=C/c3ccc(F)cc3)CC2c2ccc(F)cc2)cc1 (stereo not drawn) [Compound 4b, (E)-4-(5-(4-fluorophenyl)-3-(4-fluorostyryl)-4,5-dihydro-1H-pyrazo-1-yl)-benzonitrile], which “RM ± SD” value [1] is on record?
A: 0.61 ± 0.053

Q: What about the “RA%, 100 μM, 20 min (±SD)” value [2] of the same compound?
A: 2 ± 0.1%

Q: And the “AAPH% Inhibition, 100 μM (±SD)” value [3]?
A: 97 ± 0.6%

Q: With N#Cc1ccc(N2N=C(/C=C/c3ccc(C(F)(F)F)cc3)CC2c2ccc(C(F)(F)F)cc2)cc1 (stereo not drawn) [Compound 4f, (E)-4-(5-(4-(trifluoromethyl)phenyl)-3-(4-(trifluoromethyl)styryl)-4,5-dihydro-1H-pyrazol-1-yl)-benzonitrile] as the compound, how does the “RM ± SD” value [1] read?
A: 0.8 ± 0.031

Q: What about the “AAPH% Inhibition, 100 μM (±SD)” value [3] of the same compound?
A: 12 ± 1.1%

Q: What about the inhibition at 100 µM [4] of the same compound?
A: 22 ± 1.8%
